# In publication PMC4433817 (Journal of molecular biology, 2015):
# pIC50: −log10 of the molar value.
# Target: IspG (GcpE) (Thermus thermophilus, UniProt Q5SLI8)
# Assay: co-crystal X-ray structure
# Format: biochemical
# Sequence of IspG (GcpE) (Q5SLI8 whole entry): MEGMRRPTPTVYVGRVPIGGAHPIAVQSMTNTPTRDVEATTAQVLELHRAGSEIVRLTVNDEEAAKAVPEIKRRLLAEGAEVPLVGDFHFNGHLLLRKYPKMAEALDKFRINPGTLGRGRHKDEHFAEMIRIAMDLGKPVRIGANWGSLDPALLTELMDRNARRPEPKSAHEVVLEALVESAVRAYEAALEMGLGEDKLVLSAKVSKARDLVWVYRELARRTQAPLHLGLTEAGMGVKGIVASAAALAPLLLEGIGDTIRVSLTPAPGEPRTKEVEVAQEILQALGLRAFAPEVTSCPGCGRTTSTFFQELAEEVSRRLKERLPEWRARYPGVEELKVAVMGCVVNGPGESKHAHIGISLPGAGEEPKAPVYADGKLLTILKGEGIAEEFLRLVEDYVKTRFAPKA
compound,measurement,value
"O=P(O)(O)OP(=O)(O)O [compound 6, diphosphate]",pIC50,4.70
